Data published in patent publication US20240415819A1, “MACROCYCLIC COMPOUNDS AS PROTEASOME SUBUNIT BETA TYPE-5 INHIBITORS” (Lead Discovery Center GmbH, priority 2021, published 2024).

What was measured:
HT-29 cells = test: CellTiter-Glo luminescent cell viability assay with HT-29 cells (72h incubation); format: cell-based, human; conditions: Homo sapiens, HT-29, HT29 cells, read-out: CTG HT29
Experimental: Cell Titer Glo Viability Assay with HT-29 Cells (72h Incubation) The CellTiter-Glo Luminescent Cell Viability Assay (Promega) is a homogeneous method of determining the number of viable cells in culture. It is based on quantification of ATP, indicating the presence of metabolically active cells. On day 1 400 HT-29 cells per well are seeded in white 384well plates (Greiner, #781080) in 25 μl cell culture medium (DMEM (PAN-Biotech #P04-03590)+10% FCS+glutamine). After incubation for 24 h at 37° C./5% CO2 compounds or DMSO are added at different concentrations by Echo Liquid Handling Technology. Cells are further incubated in humidified chambers for 72 h at 37° C. and 5% CO2. Cells treated with the compound vehicle DMSO are used as positive controls and cells treated with 10 μM Staurosporine serve as negative controls. At day 5-72h after compound addition—the CellTiter Glo Reagent is prepared according to the instructions of the kit (Promega Inc.): Reagent is mixed 1:1 with cell culture medium. Thereon, mixture and assay plates are equilibrated at room temperature for 20 min. Equal volumes of the reagent-medium-mixture is added to the volume of culture medium present in each well. The plates are mixed at […] for 2 minutes on an orbital shaker. The microplates are then incubated at room temperature for 10 minutes for stabilization of the luminescent signal. Following incubation the luminescence is recorded on a Victor microplate reader (Perkin Elmer) using a 200 ms integration time. The data is then analyzed with Excel using the XLFIT Plugin (dose response Fit 205) for IC50-determination. As quality control the Z′-factor is calculated from 16 positive and negative control values. […] Inhibition is indicated as IC50 [nM] (“-”=not measured).

[1] = target: T1, β5 subunit of the human constitutive proteasome (CPS) (Homo sapiens, UniProt P28074); test: β5 inhibition assay, human constitutive proteasome (Suc-LLVY-AMC); format: biochemical; conditions: IC50 class, Suc-LLVY-AMC substrate
T1 construct: purchased Boston Biochem E-360
Experimental: The enzymatic activity of the β5 subunit of the human constitutive proteasome (CPS) is analyzed. In another assay, which differs from the assay of the human constitutive proteasome only in using the human immunoproteasome (IPS) the enzymatic activity of the β5 subunit of the human immunoproteasome (IPS) is analyzed. […] Inhibition is indicated as IC50 [nM] (“-”=not measured).

[2] = target: T2, β5 subunit of the human immunoproteasome (IPS) (Homo sapiens, UniProt P28062); test: β5 inhibition assay, human immunoproteasome (Suc-LLVY-AMC); format: biochemical; conditions: IC50 class, Suc-LLVY-AMC substrate
T2 construct: purchased Boston Biochem E-370
Experimental: The enzymatic activity of the β5 subunit of the human constitutive proteasome (CPS) is analyzed. In another assay, which differs from the assay of the human constitutive proteasome only in using the human immunoproteasome (IPS) the enzymatic activity of the β5 subunit of the human immunoproteasome (IPS) is analyzed. Incubation of the enzyme with its fluorogenic substrate Suc-LLVY-AMC leads to liberation of the fluorescent dye AMC which can be measured with a suitable plate reader. • 100 mM HEPES pH7.5 • 50 mM NaCl • 0.02% SDS • 1 mM DTT (add fresh) • Victor X5 (Perkin Elmer) • Label: Umbeliferone (0.1s) • Excitation wavelength: 355 nm • Emission wavelength: 460 nm • 4 μl human cPS or IPS enzyme in assay buffer (final assay concentration 1 nM) or 4 μl assay buffer for negative controls • Compound addition via acoustic dispenser (Echo 520, Labcyte) • Mix and incubate @ RT for 10 min • 4 μl Suc-LLVY-AMC substrate (final assay concentration 22.6 μM) • Mix and incubate @ RT for 4 h (dark) • Stop reaction with 4 μl Bortezomib (final assay concentration 1 μM) • 15 min @ RT • Measure (Excitation 355 nm; Emission 460 nm)

Compound | IC50 (HT-29 cells) | IC50 [1] | IC50 [2]
CC(=O)N[C@H]1CC(=O)N2CC3CC(Oc4ccc(C)c(c4)CNC(=O)[C@H](CCc4ccccc4)NC1=O)C3C2 (stereo partly shown) [Compound 298, N-(3^4-methyl-6,9,12-trioxo-7-phenethyl-2-oxa-13,5,8-triaza-1(6,3)-bicyclo[3.2.0]heptana-3(1,3)-benzenacyclododecaphane-10-yl)acetamide] | 0.1 to 0.5 µM | – | –
Cc1cc(CC(=O)N[C@H]2CC(=O)N3CCCC(CCOc4ccc(C)c(c4)CNC(=O)[C@H](CCc4ccccc4)NC2=O)C3)ccc1N (stereo partly drawn) [Compound 303, 2-(4-amino-3-methylphenyl)-N-((9S,12S)-5^4-methyl-8,11,14-trioxo-9-phenethyl-4-oxa-7,10-diaza-1(3,1)-piperidina-5(1,3)-benzenacyclotetradecaphane-12-yl)acetamide] | < 0.1 µM | < 0.1 µM | < 0.1 µM
Cc1ccc2cc1CNC(=O)[C@H](CCc1ccccc1)NC(=O)[C@@H](NC(=O)Cc1ccc(N)cc1C)CC(=O)N1CCCC(CCO2)C1 (stereo partly drawn) [Compound 304, 2-(4-amino-2-methylphenyl)-N-((9S,12S)-5^4-methyl-8,11,14-trioxo-9-phenethyl-4-oxa-7,10-diaza-1(3,1)-piperidina-5(1,3)-benzenacyclotetradecaphane-12-yl)acetamide] | < 0.1 µM | < 0.1 µM | < 0.1 µM
Cc1ccc2cc1CNC(=O)[C@H](CCc1ccccc1)NC(=O)[C@@H](NC(=O)C1(c3ccc(N)cc3)CCCC1)CC(=O)N1CCCC(CCO2)C1 (stereo partly drawn) [Compound 305, 1-(4-aminophenyl)-N-((9S,12S)-5^4-methyl-8,11,14-trioxo-9-phenethyl-4-oxa-7,10-diaza-1(3,1)-piperidina-5(1,3)-benzenacyclotetradecaphane-12-yl)cyclopentane-1-carboxamide] | < 0.1 µM | < 0.1 µM | < 0.1 µM
Cc1ccc2cc1CNC(=O)[C@H](CCc1ccccc1)NC(=O)[C@@H](NC(=O)C1(c3ccc(N)cc3)CCC1)CC(=O)N1CCCC(CCO2)C1 (stereo partly drawn) [Compound 306, 1-(4-aminophenyl)-N-((9S,12S)-5^4-methyl-8,11,14-trioxo-9-phenethyl-4-oxa-7,10-diaza-1(3,1)-piperidina-5(1,3)-benzenacyclotetradecaphane-12-yl)cyclobutane-1-carboxamide] | < 0.1 µM | < 0.1 µM | < 0.1 µM
Cc1ccc2cc1CNC(=O)[C@H](CCc1ccccc1)NC(=O)[C@@H](NC(=O)C1(c3ccc(N)cc3)CC1)CC(=O)N1CCCC(CCO2)C1 (stereo partly drawn) [Compound 307, 1-(4-aminophenyl)-N-((9S,12S)-5^4-methyl-8,11,14-trioxo-9-phenethyl-4-oxa-7,10-diaza-1(3,1)-piperidina-5(1,3)-benzenacyclotetradecaphane-12-yl)cyclopropane-1-carboxamide] | < 0.1 µM | < 0.1 µM | < 0.1 µM
Cc1ccc2cc1CNC(=O)[C@H](CCc1ccccc1)NC(=O)[C@@H](NC(=O)C(C)(C)c1ccc(N)cc1)CC(=O)N1CCCC(CCO2)C1 (stereo partly drawn) [Compound 308, 2-(4-aminophenyl)-2-methyl-N-((9S,12S)-5^4-methyl-8,11,14-trioxo-9-phenethyl-4-oxa-7,10-diaza-1(3,1)-piperidina-5(1,3)-benzenacyclotetradecaphane-12-yl)propanamide] | < 0.1 µM | < 0.1 µM | < 0.1 µM
Cc1ccc2cc1CNC(=O)[C@H](CCc1ccccc1)NC(=O)[C@@H](NC(=O)OCc1ccccc1)CC(=O)N(C)CCO2 [Compound 312, benzyl ((8S,11S)-1^4,5-dimethyl-6,9,12-trioxo-11-phenethyl-2-oxa-5,10,13-triaza-1(1,3)-benzenacyclotetradecaphane-8-yl)carbamate] | 0.1 to 0.5 µM | > 5 µM | 0.1 to 0.5 µM
Cc1ccc2cc1CNC(=O)[C@H](CCc1ccccc1)NC(=O)[C@@H](NC(=O)OCc1ccccc1)CC(=O)N1CC(CCO2)Cc2ccccc21 (stereo partly drawn) [Compound 313, benzyl ((9S, 12S)-5^4-methyl-8,11,14-trioxo-9-phenethyl-11,12,13,14-tetrahydro-4-oxa-7,10-diaza-1(3,1)-quinolina-5(1,3)-benzenacyclotetradecaphane-12-yl)carbamate] | 0.1 to 0.5 µM | > 5 µM | 0.5 to 1 µM
Cc1ccc2cc1CNC(=O)[C@H](CCc1ccccc1)NC(=O)[C@@H](NC(=O)OCc1ccccc1)CC(=O)N1CC(CCO2)CCC1C (stereo partly drawn) [Compound 315, benzyl ((9S,12S)-1^6,5^4-dimethyl-8,11,14-trioxo-9-phenethyl-4-oxa-7,10-diaza-1(3,1)-piperidina-5(1,3)-benzenacyclotetradecaphane-12-yl)carbamate] | < 0.1 µM | < 0.1 µM | < 0.1 µM
Cc1ccc2cc1CNC(=O)[C@H](CCc1ccccc1)NC(=O)[C@@H](NC(=O)c1cccc3c1CNCC3)CC(=O)N1CCCC(CCO2)C1 (stereo partly drawn) [Compound 316, N-((9S,12S)-5^4-methyl-8,11,14-trioxo-9-phenethyl-4-oxa-7,10-diaza-1(3,1)-piperidina-5(1,3)-benzenacyclotetradecaphane-12-yl)-1,2,3,4-tetrahydroisoquinoline-5-carboxamide] | < 0.1 µM | < 0.1 µM | < 0.1 µM
Cc1ccc2cc1CNC(=O)[C@H](CCc1ccccc1)NC(=O)[C@@H](NC(=O)C1CCc3cc(N)ccc31)CC(=O)N1CCCC(CCO2)C1 (stereo partly drawn) [Compound 317, 5-amino-N-((9S,12S)-5^4-methyl-8,11,14-trioxo-9-phenethyl-4-oxa-7,10-diaza-1(3,1)-piperidina-5(1,3)-benzenacyclotetradecaphane-12-yl)-2,3-dihydro-1H-indene-1-carboxamide] | < 0.1 µM | < 0.1 µM | < 0.1 µM
Cc1ccc2cc1CNC(=O)[C@H](CCc1ccccc1)NC(=O)[C@@H](NC(=O)Cc1ccc(N)cc1F)CC(=O)N1CCCC(CCO2)C1 (stereo partly drawn) [Compound 318, 2-(4-amino-2-fluorophenyl)-N-((9S,12S)-5^4-methyl-8,11,14-trioxo-9-phenethyl-4-oxa-7,10-diaza-1(3,1)-piperidina-5(1,3)-benzenacyclotetradecaphane-12-yl)acetamide] | < 0.1 µM | < 0.1 µM | < 0.1 µM
Cc1ccc2cc1CNC(=O)C(CCc1ccccc1)NC(=O)CCC(=O)N1CCCC(CCO2)C1 (stereo not shown) [Compound 495, 5^4-methyl-9-phenethyl-4-oxa-7,10-diaza-1(3,1)-piperidina-5(1,3)-benzenacyclotetradecaphane-8,11,14-trione] | 0.1 to 0.5 µM | – | –
CC(=O)N[C@H]1CC(=O)N2CCCC(CCOc3ccc(C)c(c3)CNC(=O)C(CCc3ccccc3)NC1=O)C2 (stereo partly drawn) [Compound 550, N-((12S)-5^4-methyl-8,11,14-trioxo-9-phenethyl-4-oxa-7,10-diaza-1(3,1)-piperidina-5(1,3)-benzenacyclotetradecaphane-12-yl)acetamide] | < 0.1 µM | – | –
CC(=O)N[C@H]1CC(=O)N2CCCC(CCOc3ccc(C)c(c3)CNC(=O)C(c3cnn(CCS(=O)(=O)O)c3)NC1=O)C2 (stereo partly drawn) [Compound 572, N-(4-((12S)-12-acetamido-5^4-methyl-8,11,14-trioxo-4-oxa-7,10-diaza-1(3,1)-piperidina-5(1,3)-benzenacyclotetradecaphane-9-yl)-1H-pyrazol-1-yl)ethane-1-sulfonic acid] | 0.1 to 0.5 µM | – | –
